Values joined by “and” are separate entries in the source; they are usually repeats but may differ in a detail not shown here. Equal values may be shown once. “Also recorded” adds a separate entry of the source.
Assays:
[1] = tested on: PEDV; assay: Extracellular viral RNA by RT-qPCR of supernatants, PEDV/Vero E6; assay type: cell-based; settings: Porcine epidemic diarrhea virus, Vero C1008; PEDV/Vero E6, 72 h post-infection, n = 3
Procedure: (§1) At 72 h post-infection, 100–200 μL of culture supernatant was collected. Viral RNA was extracted using the QIAamp Viral RNA Mini Kit (Qiagen, Hilden, Germany)according to the manufacturer’s instructions and quantified by one-step RT-qPCR on a real-time thermocycler.
(§2) EC50 values were determined from concentration–response curves generated by 2-fold serial dilutions, with at least four concentration points per curve. Each measurement was performed in triplicate technical replicates. Unless otherwise indicated, data are presented as mean ± SEM from three independent biological experiments (n = 3).
(§3) For absolute quantification, synthetic DNA (oligonucleotide) standards corresponding to the NL63, OC43, and PEDV amplicons were used. Ten-fold serial dilutions were prepared to generate standard curves. Ct values were interpolated against the curves to obtain gene copies per reaction and converted to genome copies per mL by accounting for extraction and elution volumes and the qPCR input volume.

[2] = tested on: HCoV-OC43; assay: Time-of-addition, CPE reduction in MRC-5 cells, HCoV-OC43; assay type: cell-based, Human coronavirus OC43; settings: HCoV-OC43, MRC-5 cells, 48 h
Procedure: (§4) For antiviral activity, cells in 96-well plates were infected and treated with test compounds as indicated and incubated for 48–72 h. Cell viability was quantified by WST (EZ-Cytox) at 450 nm on the same reader. Cytoprotective effect was calculated by normalizing to infected DMSO controls and converting to percent protection: % Protection = ((V_drug + virus − V_virus-only)/(V_mock − V_virus-only)) × 100.
For HCoV-OC43, TOA was assessed by CPE reduction in MRC-5 cells and by TCID50 on Vero E6 (no IFA collected).
Figure S14. Time-of-addition (TOA) analysis of KB-2777 against HCoV-NL63 (48 h). (a) CPE-reduction assay. KB-2777 was applied at 20 µM (blue) or 5 µM (red) under the indicated TOA conditions (Full, Pre, Co, Post, DMSO).
Cell protection (%) was calculated relative to the DMSO control. Bars show mean ± SD (n = 3). […] (b) Infectious progeny released under the same TOA conditions, quantified as log10(TCID₅₀/mL) from culture supernatants (see Methods). […]
Figure S15. […] Cell protection (%) was calculated relative to the DMSO control. […]
Statistics: one-way ANOVA with Dunnett’s multiple comparisons vs DMSO; *P<0.05, **P<0.01, ***P<0.001, ****P<0.0001. (b) Infectious progeny released under the same TOA conditions, quantified as log₁₀(TCID₅₀/mL) from culture supernatants by endpoint dilution on Vero E6 indicator cells (Spearman–Kärber method; see Methods). […]

[3] = tested on: HCoV-NL63; assay: Infectious titer (TCID50) of HCoV-NL63 at 48 h; assay type: cell-based, Human coronavirus NL63
Procedure: HCoV-OC43 (KBPV-VR-8), HCoV-NL63 (KBPV-VR-88), and PEDV DR13 (originally described in [20]) were used. HCoV-NL63 was propagated in LLC-MK2 cells, and HCoV-OC43 and PEDV DR13 were propagated in Vero E6 cells. Virus-containing supernatants were clarified (2000× g, 10 min, 4 °C), aliquoted, and stored at −80 °C. Infectious titers (TCID50/mL) were determined on the corresponding host cell lines by the Spearman–Kärber method with back-titrations included in each experiment.
We sought to confirm whether the antiviral activity observed by RT-qPCR was also present at the level of infectious progeny virus. […] Bars represent mean ± SEM; n = 3 independent experiments (triplicate wells per concentration).

[4] = Visible crystals or precipitates in the cell assay (soluble range); assay type: physicochemical; settings: cell assay medium; without loss of viability or morphological change
Procedure: (§5) We screened 11 oxazole-4-carboxamide derivatives (Figure 1) against HCoV-NL63 in LLC-MK2 cells and quantified antiviral activity and cytotoxicity (Figure 2). Several derivatives inhibited NL63 with distinct selectivity profiles. […] Visible crystals or precipitates formed at ≥50 µM without loss of viability or morphological change; therefore, downstream assays were performed at ≤25 µM.

[5] = tested on: mock-infected cells (LLC-MK2, Vero E6); assay: EZ-Cytox WST cell viability in mock-infected cells under the same dosing as RT-qPCR; assay type: cell-based; settings: tested concentration range (≤25 µM)
Procedure: Cells were seeded at 2 × 10^4 cells per well in 96-well plates and, after overnight attachment, exposed to test compounds for 72 h in maintenance medium. The final DMSO concentration was ≤0.1% (v/v) for all conditions, including vehicle controls. Cell viability was quantified using EZ-Cytox WST reagent (DoGenBio, Seoul, Republic of Korea) according to the manufacturer’s instructions; absorbance was read at 450 nm on a SpectraMax i3x microplate reader (Molecular Devices, San Jose, CA, USA). Viability for each well was normalized to the mean of vehicle-treated (mock) controls on the same plate and expressed as percent viability. Each condition included technical replicates (n = 3) per experiment. Concentration–response data from ≥3 independent experiments were fit to a four-parameter logistic (4PL) model in GraphPad Prism 10.1.2 (GraphPad Software, San Diego, CA, USA) (log10-transformed concentrations; bottom and top unconstrained).
We advanced KB-2777, the series member with the highest selectivity index (SI), to evaluate antiviral activity against α-coronaviruses (HCoV-NL63, PEDV) and a β-coronavirus (HCoV-OC43) by RT-qPCR. […] Representative cytopathic effect (CPE) micrographs (KB-2777 20 µM vs. virus-only) for HCoV-NL63, HCoV-OC43, and PEDV are provided in the Supplementary Information (Figure S16).

[6] = tested on: HCoV-NL63; assay: Primary antiviral screening (virus inhibition) in HCoV-NL63-infected LLC-MK2 cells; assay type: cell-based, Human coronavirus NL63
Procedure: as §4, §5

[7] = tested on: HCoV-OC43; assay: Extracellular viral RNA by RT-qPCR of supernatants, HCoV-OC43/Vero E6; assay type: cell-based, Human coronavirus OC43; settings: Betacoronavirus 1, Vero C1008; HCoV-OC43/Vero E6, 72 h post-infection, n = 3
Procedure: as §1, §2, §3

In the case of `COc1cccc(-c2oc(-c3ccc(C(F)(F)F)cc3)nc2C(=O)NCC2CC2)c1` [KB-2777, N-(cyclopropylmethyl)-5-(3-methoxyphenyl)-2-(4-(trifluoromethyl)phenyl)Oxazole-4-Carboxamide], the EC50 [1] is reported as 1590 nM, the “CPE reduction across TOA regimens” value [2] is reported as “greatest antiviral effect with full exposure, intermediate activity with pre- and post-treatment, and little or no effect with co-treatment” and the “infectious titer (TCID50) vs virus control” value ([3]; HCoV-NL63, 48 h, post-treatment, 12.5 µM and 25 µM, p < 0.0001, n = 3) is reported as “decreased; also recorded: significant reductions”. The “infectious titers (log10[TCID50/mL]) across TOA regimens” value ([3]; HCoV-NL63, 48 h post-infection, full/pre/co/post) was “decreased in a regimen-dependent manner, largest with full exposure, smaller with pre- and post-treatment, and minimal with co-treatment”, the “concentration at which visible crystals or precipitates formed” value [4] was at least 50 µM and the “cytotoxicity in mock-infected cells” value [5] was “without cytotoxicity; also recorded: no overt cytotoxicity”. The “SI (=CC50/EC50)” value ([6]; HCoV-NL63/LLC-MK2) was > 8 and >8.28, the EC50 ([6]; Human coronavirus NL63, LLC-MK2, HCoV-NL63/LLC-MK2, primary screen, read-out: EC50) was 6040 nM and the EC50 [7] was 1830 nM.
